Assay results from ChEMBL document CHEMBL5247590, “Novel nitrogen mustard-artemisinin hybrids with potent anti-leukemia action through DNA damage and activation of GPx” (Eur J Med Chem, 2022).
Calls of active or inactive are those of the source. No cut-off for these calls is given here.

How the values were obtained:
[1] = Selectivity index, ratio of IC50 for human K562 cells to IC50 for human CCRF-CEM cells
CCRF-CEM [2] = assay: Induction of cell cycle arrest in human CCRF-CEM cells assessed as cell accumulation at G2/M phase at 2 uM incubated for 24 hrs by PI staining based flow cytometry analysis (reference value: 61.3 %); type: functional
CCRF-CEM [3] = assay: Induction of cell cycle arrest in human CCRF-CEM cells assessed as cell accumulation at S phase at 0.5 uM incubated for 24 hrs by PI staining based flow cytometry analysis (reference value: 15.5 %); type: functional
CCRF-CEM [4] = assay: Downregulation of ROS level in human CCRF-CEM cells at 0.125 to 2 uM incubated for 12 hrs by DCFH-DA probe based flow cytometry analysis; type: functional, cell-based; conditions: dose 0.125-2 µM
CCRF-CEM [5] = assay: Induction of apoptosis in human CCRF-CEM cells assessed effect on cleaved caspase-3 expression at 0.25 to 0.5 uM incubated for 48 hrs by Western blot analysis; type: functional, cell-based; conditions: dose 0.25-0.5 µM
CCRF-CEM [6] = assay: Downregulation of ROS level in human CCRF-CEM cells assessed as effect on H2O2 level at 0.125 to 0.5 uM incubated for 12 hrs in presence of NADPH by DCFH-DA probe based flow cytometry analysis; type: functional, cell-based; conditions: dose 0.125-0.5 µM
CCRF-CEM [7] = assay: Induction of apoptosis in human CCRF-CEM cells incubated for 48 hrs by Hoechst staining based fluorescent microscopy; type: functional, cell-based; conditions: dose 1-4 µM
CCRF-CEM [8] = assay: Induction of apoptosis in human CCRF-CEM cells assessed as late apoptotic cells at 4 uM incubated for 48 hrs by Annexin V-FITC/PI staining based flow cytometry (reference value: 3.2 %); type: functional
CCRF-CEM [9] = assay: Induction of apoptosis in human CCRF-CEM cells assessed as viable cells at 4 uM incubated for 48 hrs by Annexin V-FITC/PI staining based flow cytometry (reference value: 83.4 %); type: functional; conditions: read-out: Activity
SH-SY5Y = assay: Antiproliferative activity against human SH-SY5Y cells assessed as cell growth inhibition incubated for 72 hrs by MTT assay; type: functional, cell-based
CCRF-CEM [10] = assay: Induction of apoptosis in human CCRF-CEM cells assessed as late apoptotic cells at 0.25 uM incubated for 48 hrs by Annexin V-FITC/PI staining based flow cytometry (reference value: 3.2 %); type: functional
CCRF-CEM [11] = assay: Antiproliferative activity against human CCRF-CEM cells assessed as cell growth inhibition at 0.1875 to 20 uM by CCK8 assay; type: functional, cell-based; conditions: dose 0.1875-20 µM, time 24-48 hrs, TDE = time-dependent effect
K562 = assay: Antiproliferative activity against human K562 cells assessed as cell growth inhibition incubated for 72 hrs by MTT assay; type: functional, cell-based; conditions: K562, 72 h
CCRF-CEM [12] = assay: Induction of apoptosis in human CCRF-CEM cells assessed as viable cells at 2 uM incubated for 48 hrs by Annexin V-FITC/PI staining based flow cytometry (reference value: 83.4 %); type: functional; conditions: read-out: Activity
CCRF-CEM [13] = assay: Induction of cell cycle arrest in human CCRF-CEM cells assessed as cell accumulation at S phase at 2 uM incubated for 24 hrs by PI staining based flow cytometry analysis (reference value: 15.5 %); type: functional
CCRF-CEM [14] = assay: Induction of DNA damage in human CCRF-CEM cells assessed as increase in gammaH2AX phosphorylation at 1 to 4 uM incubated for 24 hrs by DAPI staining based immunofluorescence microscopic analysis; type: functional, cell-based; conditions: dose 1-4 µM
CCRF-CEM [15] = assay: Induction of cell cycle arrest in human CCRF-CEM cells assessed as cell accumulation at G2/M phase at 1 uM incubated for 24 hrs by PI staining based flow cytometry analysis (reference value: 61.3 %); type: functional
U-118-MG = assay: Antiproliferative activity against human U-118-MG cells assessed as cell growth inhibition incubated for 72 hrs by MTT assay; type: functional, cell-based
CCRF-CEM [16] = assay: Induction of apoptosis in human CCRF-CEM cells assessed as early apoptotic cells at 1 uM incubated for 48 hrs by Annexin V-FITC/PI staining based flow cytometry (reference value: 13.4 %); type: functional
CCRF-CEM [17] = assay: Induction of apoptosis in human CCRF-CEM cells assessed as viable cells at 0.25 uM incubated for 48 hrs by Annexin V-FITC/PI staining based flow cytometry (reference value: 83.4 %); type: functional; conditions: read-out: Activity
CCRF-CEM [18] = assay: Inhibition of cell proliferation in human CCRF-CEM cells assessed as decrease in cell number upto 4 uM incubated for 12 hrs by cell counter analysis; type: functional, cell-based
CCRF-CEM [19] = assay: Induction of apoptosis in human CCRF-CEM cells assessed as necrotic cells at 0.5 uM incubated for 48 hrs by Annexin V-FITC/PI staining based flow cytometry (reference value: 0.0 %); type: functional
CCRF-CEM [20] = assay: Induction of apoptosis in human CCRF-CEM cells assessed effect on procaspase-3 expression at 0.25 to 0.5 uM incubated for 48 hrs by Western blot analysis; type: functional, cell-based; conditions: dose 0.25-0.5 µM
CCRF-CEM [21] = assay: Induction of apoptosis in human CCRF-CEM cells assessed as early apoptotic cells at 0.5 uM incubated for 48 hrs by Annexin V-FITC/PI staining based flow cytometry (reference value: 13.4 %); type: functional
CCRF-CEM [22] = assay: Downregulation of ROS level in human CCRF-CEM cells assessed as effect on CAT level at 0.125 to 0.5 uM incubated for 12 hrs in presence of NADPH by DCFH-DA probe based flow cytometry analysis; type: functional, cell-based; conditions: dose 0.125-0.5 µM
CCRF-CEM [23] = assay: Induction of apoptosis in human CCRF-CEM cells assessed as late apoptotic cells at 0.5 uM incubated for 48 hrs by Annexin V-FITC/PI staining based flow cytometry (reference value: 3.2 %); type: functional
CCRF-CEM [24] = assay: Induction of apoptosis in human CCRF-CEM cells assessed as early apoptotic cells at 2 uM incubated for 48 hrs by Annexin V-FITC/PI staining based flow cytometry (reference value: 13.4 %); type: functional
CCRF-CEM [25] = assay: Induction of apoptosis in human CCRF-CEM cells assessed as viable cells at 1 uM incubated for 48 hrs by Annexin V-FITC/PI staining based flow cytometry (reference value: 83.4 %); type: functional; conditions: read-out: Activity
CCRF-CEM [26] = assay: Induction of apoptosis in human CCRF-CEM cells assessed as nuclear condensation upto 4 uM incubated for 48 hrs by Hoechst staining based fluorescent microscopic analysis; type: functional, cell-based
HL-60 = assay: Antiproliferative activity against human HL-60 cells assessed as cell growth inhibition incubated for 72 hrs by MTT assay; type: functional, cell-based; conditions: HL-60, 72 h
CCRF-CEM [27] = assay: Antiproliferative activity against human CCRF-CEM cells assessed as cell growth inhibition incubated for 72 hrs by MTT assay; type: functional, cell-based
CCRF-CEM [28] = assay: Induction of apoptosis in human CCRF-CEM cells assessed as nuclear collapse upto 4 uM incubated for 48 hrs by Hoechst staining based fluorescent microscopic analysis; type: functional, cell-based
CCRF-CEM [29] = assay: Induction of apoptosis in human CCRF-CEM cells assessed downregulation of Bcl-2 expression at 0.25 to 0.5 uM incubated for 48 hrs by Western blot analysis; type: functional, cell-based; conditions: dose 0.25-0.5 µM
[30] = Antiproliferative activity against human L02 cells assessed as cell growth inhibition incubated for 72 hrs by MTT assay; type: toxicity, cell-based
CCRF-CEM [31] = assay: Induction of apoptosis in human CCRF-CEM cells assessed as necrotic cells at 2 uM incubated for 48 hrs by Annexin V-FITC/PI staining based flow cytometry (reference value: 0.0 %); type: functional

Compound: C[C@@H]1CC[C@H]2[C@@H](C)C(OC(=O)c3ccc(N(CCCl)CCCl)cc3)O[C@@H]3O[C@@]4(C)CC[C@@H]1[C@]32OO4 (stereo not given in full)
- Selectivity Index [1]: 1.82
- Activity (CCRF-CEM [2]): 67.1%
- Activity (CCRF-CEM [3]): 6.8%
- Activity (CCRF-CEM [4]): Dose-Dependent Effect
- AC30 (CCRF-CEM [5]): inactive
- Activity (CCRF-CEM [6]): Active
- Activity (CCRF-CEM [7]): Dose-Dependent Effect
- Activity (CCRF-CEM [8]): 14.8%
- viability at 4 µM (CCRF-CEM [9]): 47.8%
- IC50 (SH-SY5Y): > 40 µM
- Activity (CCRF-CEM [10]): 11.7%
- Activity (CCRF-CEM [11]): Tde
- IC50 (K562): 22 µM
- viability at 2 µM (CCRF-CEM [12]): 53.8%
- Activity (CCRF-CEM [13]): 6.5%
- Activity (CCRF-CEM [14]): Active
- Activity (CCRF-CEM [15]): 47.6%
- IC50 (U-118-MG): > 40 µM
- Activity (CCRF-CEM [16]): 26.7%
- viability at 0.25 µM (CCRF-CEM [17]): 67.7%
- inhibition (CCRF-CEM [18]): Active
- Activity (CCRF-CEM [19]): 0.1%
- Activity (CCRF-CEM [20]): inactive
- Activity (CCRF-CEM [21]): 78.6%
- Activity (CCRF-CEM [22]): Active
- Activity (CCRF-CEM [23]): 6.9%
- Activity (CCRF-CEM [24]): 33.4%
- viability at 1 µM (CCRF-CEM [25]): 60.4%
- Activity (CCRF-CEM [26]): Active
- IC50 (HL-60): 2.32 µM
- IC50 (CCRF-CEM [27]): 0.895 µM
- Activity (CCRF-CEM [28]): Active
- Activity (CCRF-CEM [29]): Active
- IC50 at 72 h [30]: > 40 µM
- Activity (CCRF-CEM [31]): 0.1%
